Data published in US9884842B2, “Combretastatin analogs” (The Board of Trustees of the University of Arkansas, priority 2013, dated 2018).

tested on: full panel of 60 different cancer cell lines; experiment: NCI five dose screen, full panel summary; assay type: cell-based, human; settings: Homo sapiens; range over the potently inhibited cell lines; read-out: GI50 ranging (potently inhibited cancer cell lines)

Row | Structure (SMILES) | GI50 [nM]
1 | COc1cc(OC)cc(/C(C#N)=C/c2ccc3ccccc3n2)c1 [PNR-4-84, (Z)-2-(3,5-dimethoxyphenyl)-3-(quinolin-2-yl)acrylonitrile] | 94 to 983

same assay, conditions: Homo sapiens; read-out: average GI50 value on all the cancer cell lines

Row | Structure (SMILES) | GI50 [nM]
2 | COc1cc(OC)cc(/C(C#N)=C/c2ccc3ccccc3n2)c1 [PNR-4-84, (Z)-2-(3,5-dimethoxyphenyl)-3-(quinolin-2-yl)acrylonitrile] | 490

same assay, conditions: share of the cancer cell lines potently inhibited

Row | Structure (SMILES) | potent growth inhibition on % of the cancer cell lines [%]
3 | COc1cc(OC)cc(/C(C#N)=C/c2ccc3ccccc3n2)c1 [PNR-4-84, (Z)-2-(3,5-dimethoxyphenyl)-3-(quinolin-2-yl)acrylonitrile] | 86

tested on: U251; experiment: NCI growth inhibition and cytotoxicity screen, CNS Cancer panel; settings: Homo sapiens, U-251

Row | Structure (SMILES) | GI50 [nM]
4 | COc1cc(OC)cc(/C(C#N)=C/c2ccc3ccccc3n2)c1 [PNR-4-84, (Z)-2-(3,5-dimethoxyphenyl)-3-(quinolin-2-yl)acrylonitrile] | 425

same assay, conditions: Homo sapiens, U-251, read-out: LC50

Row | Structure (SMILES) | CC50 [nM]
5 | COc1cc(OC)cc(/C(C#N)=C/c2ccc3ccccc3n2)c1 [PNR-4-84, (Z)-2-(3,5-dimethoxyphenyl)-3-(quinolin-2-yl)acrylonitrile] | > 100000

tested on: HCT-116; experiment: NCI growth inhibition and cytotoxicity screen, Colon Cancer panel; settings: Homo sapiens, HCT-116

Row | Structure (SMILES) | GI50 [nM]
6 | COc1cc(OC)cc(/C(C#N)=C/c2ccc3ccccc3n2)c1 [PNR-4-84, (Z)-2-(3,5-dimethoxyphenyl)-3-(quinolin-2-yl)acrylonitrile] | 416

same assay, conditions: Homo sapiens, HCT-116, read-out: LC50

Row | Structure (SMILES) | CC50 [nM]
7 | COc1cc(OC)cc(/C(C#N)=C/c2ccc3ccccc3n2)c1 [PNR-4-84, (Z)-2-(3,5-dimethoxyphenyl)-3-(quinolin-2-yl)acrylonitrile] | 47300

tested on: PC-3; experiment: NCI growth inhibition and cytotoxicity screen, Prostate Cancer panel; settings: Homo sapiens, PC-3

Row | Structure (SMILES) | GI50 [nM]
8 | COc1cc(OC)cc(/C(C#N)=C/c2ccc3ccccc3n2)c1 [PNR-4-84, (Z)-2-(3,5-dimethoxyphenyl)-3-(quinolin-2-yl)acrylonitrile] | 584

same assay, conditions: Homo sapiens, PC-3, read-out: LC50

Row | Structure (SMILES) | CC50 [nM]
9 | COc1cc(OC)cc(/C(C#N)=C/c2ccc3ccccc3n2)c1 [PNR-4-84, (Z)-2-(3,5-dimethoxyphenyl)-3-(quinolin-2-yl)acrylonitrile] | > 100000

tested on: UACC-62; experiment: NCI growth inhibition and cytotoxicity screen, Melanoma panel; settings: Homo sapiens, UACC-62

Row | Structure (SMILES) | GI50 [nM]
10 | COc1cc(OC)cc(/C(C#N)=C/c2ccc3ccccc3n2)c1 [PNR-4-84, (Z)-2-(3,5-dimethoxyphenyl)-3-(quinolin-2-yl)acrylonitrile] | 449

same assay, conditions: Homo sapiens, UACC-62, read-out: LC50

Row | Structure (SMILES) | CC50 [nM]
11 | COc1cc(OC)cc(/C(C#N)=C/c2ccc3ccccc3n2)c1 [PNR-4-84, (Z)-2-(3,5-dimethoxyphenyl)-3-(quinolin-2-yl)acrylonitrile] | > 100000

tested on: LOX-IMVI; experiment: as above; settings: Homo sapiens

Row | Structure (SMILES) | GI50 [nM]
12 | COc1cc(OC)cc(/C(C#N)=C/c2ccc3ccccc3n2)c1 [PNR-4-84, (Z)-2-(3,5-dimethoxyphenyl)-3-(quinolin-2-yl)acrylonitrile] | 610

same assay, conditions: Homo sapiens, read-out: LC50

Row | Structure (SMILES) | CC50 [nM]
13 | COc1cc(OC)cc(/C(C#N)=C/c2ccc3ccccc3n2)c1 [PNR-4-84, (Z)-2-(3,5-dimethoxyphenyl)-3-(quinolin-2-yl)acrylonitrile] | > 100000

tested on: SNB-75; experiment: NCI growth inhibition and cytotoxicity screen, CNS Cancer panel; settings: Homo sapiens, SNB-75

Row | Structure (SMILES) | GI50 [nM]
14 | COc1cc(OC)cc(/C(C#N)=C/c2ccc3ccccc3n2)c1 [PNR-4-84, (Z)-2-(3,5-dimethoxyphenyl)-3-(quinolin-2-yl)acrylonitrile] | 311

same assay, conditions: Homo sapiens, SNB-75, read-out: LC50

Row | Structure (SMILES) | CC50 [nM]
15 | COc1cc(OC)cc(/C(C#N)=C/c2ccc3ccccc3n2)c1 [PNR-4-84, (Z)-2-(3,5-dimethoxyphenyl)-3-(quinolin-2-yl)acrylonitrile] | > 100000

tested on: HCT-15; experiment: NCI growth inhibition and cytotoxicity screen, Colon Cancer panel; settings: Homo sapiens, HCT-15

Row | Structure (SMILES) | GI50 [nM]
16 | COc1cc(OC)cc(/C(C#N)=C/c2ccc3ccccc3n2)c1 [PNR-4-84, (Z)-2-(3,5-dimethoxyphenyl)-3-(quinolin-2-yl)acrylonitrile] | 409

same assay, conditions: Homo sapiens, HCT-15, read-out: LC50

Row | Structure (SMILES) | CC50 [nM]
17 | COc1cc(OC)cc(/C(C#N)=C/c2ccc3ccccc3n2)c1 [PNR-4-84, (Z)-2-(3,5-dimethoxyphenyl)-3-(quinolin-2-yl)acrylonitrile] | > 100000

tested on: CAKI-1; experiment: NCI growth inhibition and cytotoxicity screen, Renal Cancer panel; settings: Homo sapiens, CAKI-1

Row | Structure (SMILES) | GI50 [nM]
18 | COc1cc(OC)cc(/C(C#N)=C/c2ccc3ccccc3n2)c1 [PNR-4-84, (Z)-2-(3,5-dimethoxyphenyl)-3-(quinolin-2-yl)acrylonitrile] | 318

same assay, conditions: Homo sapiens, CAKI-1, read-out: LC50

Row | Structure (SMILES) | CC50 [nM]
19 | COc1cc(OC)cc(/C(C#N)=C/c2ccc3ccccc3n2)c1 [PNR-4-84, (Z)-2-(3,5-dimethoxyphenyl)-3-(quinolin-2-yl)acrylonitrile] | > 100000

tested on: RXF 393; experiment: as above; settings: Homo sapiens, RXF 393

Row | Structure (SMILES) | GI50 [nM]
20 | COc1cc(OC)cc(/C(C#N)=C/c2ccc3ccccc3n2)c1 [PNR-4-84, (Z)-2-(3,5-dimethoxyphenyl)-3-(quinolin-2-yl)acrylonitrile] | 334

same assay, conditions: Homo sapiens, RXF 393, read-out: LC50

Row | Structure (SMILES) | CC50 [nM]
21 | COc1cc(OC)cc(/C(C#N)=C/c2ccc3ccccc3n2)c1 [PNR-4-84, (Z)-2-(3,5-dimethoxyphenyl)-3-(quinolin-2-yl)acrylonitrile] | > 100000

tested on: KM12; experiment: NCI growth inhibition and cytotoxicity screen, Colon Cancer panel; settings: Homo sapiens, KM12

Row | Structure (SMILES) | GI50 [nM]
22 | COc1cc(OC)cc(/C(C#N)=C/c2ccc3ccccc3n2)c1 [PNR-4-84, (Z)-2-(3,5-dimethoxyphenyl)-3-(quinolin-2-yl)acrylonitrile] | 425

same assay, conditions: Homo sapiens, KM12, read-out: LC50

Row | Structure (SMILES) | CC50 [nM]
23 | COc1cc(OC)cc(/C(C#N)=C/c2ccc3ccccc3n2)c1 [PNR-4-84, (Z)-2-(3,5-dimethoxyphenyl)-3-(quinolin-2-yl)acrylonitrile] | > 100000

tested on: HS 578T; experiment: NCI growth inhibition and cytotoxicity screen, Breast Cancer panel; settings: Homo sapiens

Row | Structure (SMILES) | GI50 [nM]
24 | COc1cc(OC)cc(/C(C#N)=C/c2ccc3ccccc3n2)c1 [PNR-4-84, (Z)-2-(3,5-dimethoxyphenyl)-3-(quinolin-2-yl)acrylonitrile] | 700

same assay, conditions: Homo sapiens, read-out: LC50

Row | Structure (SMILES) | CC50 [nM]
25 | COc1cc(OC)cc(/C(C#N)=C/c2ccc3ccccc3n2)c1 [PNR-4-84, (Z)-2-(3,5-dimethoxyphenyl)-3-(quinolin-2-yl)acrylonitrile] | > 100000

tested on: MOLT-4; experiment: NCI growth inhibition and cytotoxicity screen, Leukemia panel; settings: Homo sapiens, MOLT-4

Row | Structure (SMILES) | GI50 [nM]
26 | COc1cc(OC)cc(/C(C#N)=C/c2ccc3ccccc3n2)c1 [PNR-4-84, (Z)-2-(3,5-dimethoxyphenyl)-3-(quinolin-2-yl)acrylonitrile] | 419

same assay, conditions: Homo sapiens, MOLT-4, read-out: LC50

Row | Structure (SMILES) | CC50 [nM]
27 | COc1cc(OC)cc(/C(C#N)=C/c2ccc3ccccc3n2)c1 [PNR-4-84, (Z)-2-(3,5-dimethoxyphenyl)-3-(quinolin-2-yl)acrylonitrile] | > 100000
